Assay results from patent US8742106B2 (Novartis AG, priority 2009, dated 2014).

Key:
human orexin 2 receptors = human orexin 2 receptors (Homo sapiens (Human), UniProt O43614); experiment: Calcium Accumulation in Cells (FLIPR), antagonism of orexin A; type: cell-based; conditions: for Ki: antagonism of orexin A, Cheng-Prusoff corrected, read-out: FLIPR hOx2R Ki; for inhibition at 10 µM: measured at a concentration of 10 μM of compound, read-out: FLIPR hOx2R % inhibition value
Outline: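 Cells expressing human orexin 2 receptor, loaded with Fluo4-AM (2 μM) plus probenecid (0.1 mM) for 1 h, then washed. Antagonism read as inhibition of the orexin A calcium fluorescence signal (FLIPR).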

human orexin 1 receptors = human orexin 1 receptors (Homo sapiens (Human), UniProt O43613); experiment: as above; type: cell-based; conditions: for Ki: antagonism of orexin A, Cheng-Prusoff corrected, read-out: FLIPR hOx1R Ki; for inhibition at 10 µM: measured at a concentration of 10 μM of compound, read-out: FLIPR hOx1R % inhibition value
Sequence of human orexin 1 receptors (O43613 whole entry): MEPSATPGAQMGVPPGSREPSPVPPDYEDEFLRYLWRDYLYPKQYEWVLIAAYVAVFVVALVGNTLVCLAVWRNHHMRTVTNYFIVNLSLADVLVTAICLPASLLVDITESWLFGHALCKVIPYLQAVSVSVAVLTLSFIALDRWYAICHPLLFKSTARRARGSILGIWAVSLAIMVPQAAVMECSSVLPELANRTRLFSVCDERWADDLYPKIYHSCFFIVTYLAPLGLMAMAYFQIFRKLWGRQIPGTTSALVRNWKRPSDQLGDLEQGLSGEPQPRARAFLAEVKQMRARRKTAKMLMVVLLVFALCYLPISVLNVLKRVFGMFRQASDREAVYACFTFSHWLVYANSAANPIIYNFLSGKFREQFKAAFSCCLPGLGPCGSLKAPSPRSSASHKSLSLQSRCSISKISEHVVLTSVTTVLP

Sequence of human orexin 2 receptors (O43614 whole entry): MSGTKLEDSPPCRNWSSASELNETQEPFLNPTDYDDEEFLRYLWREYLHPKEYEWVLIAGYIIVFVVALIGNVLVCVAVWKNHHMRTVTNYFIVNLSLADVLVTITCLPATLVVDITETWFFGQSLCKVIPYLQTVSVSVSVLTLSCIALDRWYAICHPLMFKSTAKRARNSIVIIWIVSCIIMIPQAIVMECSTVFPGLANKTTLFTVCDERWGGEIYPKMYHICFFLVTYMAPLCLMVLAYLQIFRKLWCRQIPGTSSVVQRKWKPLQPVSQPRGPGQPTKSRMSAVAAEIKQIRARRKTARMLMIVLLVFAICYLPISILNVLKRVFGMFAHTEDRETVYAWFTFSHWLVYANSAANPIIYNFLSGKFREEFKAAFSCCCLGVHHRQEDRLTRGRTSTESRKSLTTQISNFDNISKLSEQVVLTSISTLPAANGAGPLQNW

Row | SMILES | Ki (human orexin 2 receptors) [nM] | Ki (human orexin 1 receptors) [nM] | inhibition at 10 µM (human orexin 1 receptors) [%] | inhibition at 10 µM (human orexin 2 receptors) [%]
1 | COc1ccc(C(C)NC(=O)COc2cc(C(F)F)c3c(C4CC4)nn(C)c3n2)cn1 (stereo not drawn) [Example 6.10, 2-(3-cyclopropyl-4-(difluoromethyl)-1-methyl-1H-pyrazolo[3,4-b]pyridin-6-yloxy)-N-(1-(6-methoxypyridin-3-yl)ethyl)acetamide] | 184 | 516 | – | –
2 | Cc1ccc([C@H](C)NC(=O)COc2cc(C(C)C)c3c(C4CC4)nn(C)c3n2)cc1 [Example 6.11, (S)-2-(3-cyclopropyl-4-isopropyl-1-methyl-1H-pyrazolo[3,4-b]pyridin-6-yloxy)-N-(1-p-tolylethyl)acetamide] | 208 | 691 | – | –
3 | Cc1nn(C)c(C)c1C(C)NC(=O)COc1cc(C(F)(F)F)c2c(C3CC3)nn(C)c2n1 (stereo not drawn) [Example 6.12, 2-(3-cyclopropyl-1-methyl-4-(trifluoromethyl)-1H-pyrazolo[3,4-b]pyridin-6-yloxy)-N-(1-(1,3,5-trimethyl-1H-pyrazol-4-yl)ethyl)acetamide] | 165 | 680 | – | –
4 | Cc1ccc(C(C)NC(=O)COc2cc(C(F)(F)F)c3c(C4CC4)nn(C)c3n2)cn1 (stereo not drawn) [Example 6.16, 2-(3-cyclopropyl-1-methyl-4-(trifluoromethyl)-1H-pyrazolo[3,4-b]pyridin-6-yloxy)-N-(1-(6-methylpyridin-3-yl)ethyl)acetamide] | 188 | 1590 | – | –
5 | Cc1ccc(C(C)NC(=O)COc2cc(C(F)F)c3c(-c4ccccc4)nn(C)c3n2)cn1 (stereo not drawn) [Example 6.18, 2-(4-(difluoromethyl)-1-methyl-3-phenyl-1H-pyrazolo[3,4-b]pyridin-6-yloxy)-N-(1-(6-methylpyridin-3-yl)ethyl)acetamide] | 98 | 535 | – | –
6 | Cc1ccc(C(C)NC(=O)COc2cc(C(F)F)c3c(C4CC4)nn(C)c3n2)cn1 (stereo not drawn) [Example 6.19, 2-(3-cyclopropyl-4-(difluoromethyl)-1-methyl-1H-pyrazolo[3,4-b]pyridin-6-yloxy)-N-(1-(6-methylpyridin-3-yl)ethyl)acetamide] | 800 | – | 41 | –
7 | Cc1ccc([C@H](C)NC(=O)COc2ccc3c(C4CC4)nn(C)c3n2)cc1 [Example 6.23, (S)-2-(3-cyclopropyl-1-methyl-1H-pyrazolo[3,4-b]pyridin-6-yloxy)-N-(1-p-tolylethyl)acetamide] | 237 | 1100 | – | –
8 | COc1ccc([C@H](C)NC(=O)COc2cc(C)c3c(C(C)C)nn(C)c3n2)cc1 [Example 6.27, (S)-2-(3-isopropyl-1,4-dimethyl-1H-pyrazolo[3,4-b]pyridin-6-yloxy)-N-(1-(4-methoxyphenyl)ethyl)acetamide] | 105 | 415 | – | –
9 | COc1ccc(C(C)NC(=O)COc2cc(C)c3c(C(C)C)nn(C)c3n2)cn1 (stereo not drawn) [Example 6.28, 2-(3-isopropyl-1,4-dimethyl-1H-pyrazolo[3,4-b]pyridin-6-yloxy)-N-(1-(6-methoxypyridin-3-yl)ethyl)acetamide] | 1220 | – | 39 | –
10 | Cc1nn(C)c(C)c1C(C)NC(=O)COc1cc(C)c2c(C(C)C)nn(C)c2n1 (stereo not drawn) [Example 6.29, 2-(3-isopropyl-1,4-dimethyl-1H-pyrazolo[3,4-b]pyridin-6-yloxy)-N-(1-(1,3,5-trimethyl-1H-pyrazol-4-yl)ethyl)acetamide] | – | – | 36 | 34
11 | COc1ccc(C(C)NC(=O)COc2cc(C)c3c(-c4cc(C)oc4C)nn(C)c3n2)cn1 (stereo not drawn) [Example 6.32, 2-(3-(2,5-dimethylfuran-3-yl)-1,4-dimethyl-1H-pyrazolo[3,4-b]pyridin-6-yloxy)-N-(1-(6-methoxypyridin-3-yl)ethyl)acetamide] | 950 | 845 | – | –
12 | Cc1ccc([C@H](C)NC(=O)COc2ccc3c(-c4ccccc4C)nn(C)c3n2)cc1 [Example 6.35, (S)-2-(1-methyl-3-o-tolyl-1H-pyrazolo[3,4-b]pyridin-6-yloxy)-N-(1-p-tolylethyl)acetamide] | 126 | 256 | – | –
13 | Cc1cc(OCC(=O)NC2CCc3cc(F)ccc32)nc2c1c(C1CC1)nn2C (stereo not drawn) [Example 6.40, 2-(3-cyclopropyl-1,4-dimethyl-1H-pyrazolo[3,4-b]pyridin-6-yloxy)-N-(5-fluoro-2,3-dihydro-1H-inden-1-yl)acetamide] | 589 | – | 21 | –
14 | Cc1cc(OCC(=O)NCC(C)C)nc2c1c(C1CC1)nn2C [Example 6.45, 2-(3-cyclopropyl-1,4-dimethyl-1H-pyrazolo[3,4-b]pyridin-6-yloxy)-N-isobutylacetamide] | – | – | 20 | 19
15 | Cc1cc(OCC(=O)NC2CCCC2)nc2c1c(C1CC1)nn2C [Example 6.46, N-cyclopentyl-2-(3-cyclopropyl-1,4-dimethyl-1H-pyrazolo[3,4-b]pyridin-6-yloxy)acetamide] | – | – | 16 | 26
16 | COc1ccc(C(C)NC(=O)COc2cc(C)c3c(C4CC4)nn(C)c3n2)cn1 (stereo not drawn) [Example 6.47, 2-(3-cyclopropyl-1,4-dimethyl-1H-pyrazolo[3,4-b]pyridin-6-yloxy)-N-(1-(6-methoxypyridin-3-yl)ethyl)acetamide] | 747 | 1490 | – | –
17 | Cc1cc(OCC(=O)NC(C)c2cc(CC(C)(C)C)on2)nc2c1c(C1CC1)nn2C (stereo not drawn) [Example 6.48, 2-(3-cyclopropyl-1,4-dimethyl-1H-pyrazolo[3,4-b]pyridin-6-yloxy)-N-(1-(5-neopentylisoxazol-3-yl)ethyl)acetamide] | – | – | < 10 | < 10

Row | SMILES | Ki (human orexin 2 receptors) [nM] | Ki (human orexin 1 receptors) [nM] | inhibition at 10 µM (human orexin 1 receptors) [%] | inhibition at 10 µM (human orexin 2 receptors) [%]
18 | Cc1cc(OCC(=O)NCCc2ccccc2)nc2c1c(C1CC1)nn2C [Example 6.49, 2-(3-cyclopropyl-1,4-dimethyl-1H-pyrazolo[3,4-b]pyridin-6-yloxy)-N-phenethylacetamide] | 611 | – | 21 | –
19 | Cc1cc(OCC(=O)NCCCc2ccccc2)nc2c1c(C1CC1)nn2C [Example 6.50, 2-(3-cyclopropyl-1,4-dimethyl-1H-pyrazolo[3,4-b]pyridin-6-yloxy)-N-(3-phenylpropyl)acetamide] | – | – | 10 | 42
20 | COc1ccc([C@H](C)N(C)C(=O)COc2cc(C)c3c(C4CC4)nn(C)c3n2)cc1 [Example 6.51] | 575 | – | 26 | –
21 | CNC(=O)COc1cc(C)c2c(C3CC3)nn(C)c2n1 [Example 6.52] | – | – | < 10 | < 10
22 | Cc1cc(OCC(=O)NC(C)C2CC2)nc2c1c(C1CC1)nn2C (stereo not drawn) [Example 6.53] | – | – | 17 | 38
23 | CCn1ccc(C(C)NC(=O)COc2cc(C)c3c(C4CC4)nn(C)c3n2)n1 (stereo not drawn) [Example 6.54] | – | – | 44 | 29
24 | Cc1ccc(C(C)NC(=O)COc2cc(C)c3c(C4CC4)nn(C)c3n2)cn1 (stereo not drawn) [Example 6.55] | 525 | – | 53 | –
25 | Cc1cc(OCC(=O)N[C@@H](C)C2CCCC2)nc2c1c(C1CC1)nn2C [Example 6.56, (S)-N-(1-cyclopentylethyl)-2-(3-cyclopropyl-1,4-dimethyl-1H-pyrazolo[3,4-b]pyridin-6-yloxy)acetamide] | – | – | < 10 | < 10
26 | Cc1cc(OCC(=O)NC(C)c2ccc3c(c2)ncn3C)nc2c1c(C1CC1)nn2C (stereo not drawn) [Example 6.58, 2-(3-cyclopropyl-1,4-dimethyl-1H-pyrazolo[3,4-b]pyridin-6-yloxy)-N-(1-(1-methyl-1H-benzo[d]imidazol-5-yl)ethyl)acetamide] | 382 | 1010 | – | –
27 | Cc1ccc([C@H](C)NC(=O)COc2nc3c(cc2C)c(C2CC2)nn3C)cc1 [Example 6.60, (S)-2-(3-cyclopropyl-1,5-dimethyl-1H-pyrazolo[3,4-b]pyridin-6-yloxy)-N-(1-p-tolylethyl)acetamide] | 1170 | – | 11 | –
28 | COc1ccc(C(C)(C)NC(=O)COc2cc(C)c3c(C4CC4)nn(C)c3n2)cc1 [Example 6.62, 2-(3-cyclopropyl-1,4-dimethyl-1H-pyrazolo[3,4-b]pyridin-6-yloxy)-N-(2-(4-methoxyphenyl)propan-2-yl)acetamide] | 160 | 626 | – | –
29 | Cc1cc2c(cn1)[C@@H](NC(=O)COc1cc(C)c3c(C4CC4)nn(C)c3n1)CC2 [Example 6.64, (S)-2-(3-cyclopropyl-1,4-dimethyl-1H-pyrazolo[3,4-b]pyridin-6-yloxy)-N-(3-methyl-6,7-dihydro-5H-cyclopenta[c]pyridin-7-yl)acetamide] | 93 | 783 | – | –
30 | Cc1cnc2c(c1)CC[C@@H]2NC(=O)COc1cc(C)c2c(C3CC3)nn(C)c2n1 [Example 6.65, (S)-2-(3-cyclopropyl-1,4-dimethyl-1H-pyrazolo[3,4-b]pyridin-6-yloxy)-N-(3-methyl-6,7-dihydro-5H-cyclopenta[b]pyridin-7-yl)acetamide] | 825 | – | < 10 | –
31 | Cc1ccc(CNC(=O)COc2cc(C)c3c(C4CC4)nn(C)c3n2)cc1 [Example 6.66, 2-(3-cyclopropyl-1,4-dimethyl-1H-pyrazolo[3,4-b]pyridin-6-yloxy)-N-(4-methylbenzyl)acetamide] | 1300 | 3890 | – | –
32 | COc1ccc(CNC(=O)COc2cc(C)c3c(C4CC4)nn(C)c3n2)cc1 [Example 6.67, 2-(3-cyclopropyl-1,4-dimethyl-1H-pyrazolo[3,4-b]pyridin-6-yloxy)-N-(4-methoxybenzyl)acetamide] | – | – | 29 | 40
33 | Cc1cc(OCC(=O)N[C@H]2CCc3cc(OC(C)C)ccc32)nc2c1c(C1CC1)nn2C [Example 6.69, (S)-2-(3-cyclopropyl-1,4-dimethyl-1H-pyrazolo[3,4-b]pyridin-6-yloxy)-N-(5-isopropoxy-2,3-dihydro-1H-inden-1-yl)acetamide] | – | 126 | – | 31
